Laboratory results as given in patent publication US4087418A, “Hexapeptides and methods for their production” (Parke, Davis & Company, priority 1976, dated 1978).

System: LRF (luteinizing hormone release factor) induced luteinizing hormone (LH) release
Assay: In vitro LRF antagonist test in rat anterior pituitary cell cultures
Assay type: cell-based
Conditions: LRF alone, Molar Conc. 2.5×10^-10 (stimulation control)
Source text: Hexapeptides of this invention were screened for LRF antagonist activity in vitro using rat anterior pituitary cell cultures as described by Vale et. al. [Endocrinology, 91, 562 (1972)]. The inhibition of LRF (luteinizing hormone release factor) induced luteinizing hormone (LH) release into the culture medium is the endpoint in this in vitro bioassay.

Substance: LRF Control: luteinizing hormone releasing factor, also referred to as luteinizing hormone releasing hormone, LH-RH; stimulates secretion of luteinizing hormone (QHWSYGLRPG; Gonadoliberin-1; UniProt P01148 24-33, looked up)
- LH Value: 38.98 ng/mL
